Values joined by “and” are separate entries in the source; they are usually repeats but may differ in a detail not shown here. Equal values may be shown once.
Tests used:
[1] = In vivo metabolism test of 177Lu-labeled complex in SD rats (plasma radioactive counts); settings: for plasma radioactive counts: individual rat, 100 μL plasma; for plasma radioactive counts, MEAN: mean of rats
Protocol: Eighteen SD rats (Hangzhou Ziyuan Experimental Animal Technology Co., Ltd.), male, weighing 180-200 g, were randomly divided into 6 groups, 3 rats in each group. […] of the labeled precursor compound was injected into the tail vein of each mouse. 250 μL of orbital blood was collected into anticoagulant tubes at 5 min, 0.5 h, 1 h, 2 h, 4 h, 8 h and 24 h after administration. Blood was centrifuged at 3000 rpm for 10 min, and 100 μL of plasma was taken into scintillation vials. 2 mL of scintillation fluid was added to each scintillation vial and shaken well. A liquid scintillation counter was used to detect radioactive counts in each vial.

[2] = system: PSMA-positive cells LNCap; assay: Uptake of labeled compounds by PSMA-positive cells LNCap; type: cell-based; settings: 37° C., 0.5 h
Protocol: LNCap cells (Shangcheng Beina Chuanglian Biotechnology Co., Ltd., Industrial Park, Chengguan Town, Shangcheng County, Xinyang City, Henan Province) were revived and passaged for expansion. After the cells were expanded to a sufficient amount, cells were seeded in a 24-well plate at a density of 1×10^4 cells/well. Uptake tests were performed when cells grew to 80%-90% confluence.
The above labeled compounds ^177Lu-E1, ^177Lu-E2, ^177Lu-E3, ^177Lu-E5, ^177Lu-E9, ^177Lu-E14 and ^177Lu-PSMA-617 were diluted with serum-free medium into 10000, 1000, 100, 10, 1, 0.1 and 0 nM. 1 mL of the diluted solution was added to a 24-well plate, and incubated at 37° C. for 0.5 h. The supernatant was discarded and the cells were washed 3 times with PBS. 250 μL of 1M NaOH solution was added to each well. The cells were pipetted until they were completely dissolved, and transferred to a scintillation vial. 250 μL of NaOH solution was added to each well again to wash the bottom of the well and transferred to a scintillation vial. 2 mL of scintillation fluid was added to each scintillation vial and shaken well. A liquid scintillation counter was used to detect radioactive counts in each vial.

[3] = In vivo distribution in healthy SD rats; settings: intravenous, FIG. 7
Protocol: In vivo distribution in healthy rats: Radiolabeled E series compounds were injected into the tail vein of SD rats aged 6-9 weeks (Hangzhou Ziyuan Testal Animal Technology Co., Ltd.) (about 7.4 MBq/mouse, specific activity: 84200.14 kBq/μg). At different time points (0.25, 0.5, 1, 2, 4, 6, 24, 48, 72 h) after administration of labeled compounds to SD rats, the animals were euthanized by carbon dioxide inhalation, and the blood and […] viscera (blood, liver, spleen, lungs, heart, muscle, pancreas, testes) of the animals were collected after euthanasia.
Blood was collected through the abdominal aorta, and immediately after collection, 100 μL was quantified into a designated centrifuge tube (weighed). After the viscera were collected, they were washed twice with deionized water, wiped dry, put into a pre-weighed test tube, and weighed again. The weight of samples was calculated. The sample was measured on the day of collection. All blood samples and tissue samples were measured for radioactive counts using a gamma counter.

[4] = system: 22rv1 PSMA-expressing tumors; assay: SPECT imaging in 22rv1 tumor-bearing balb/c nude mice (effect example 10); type: in vivo; settings: about 7.4 MBq/mouse tail vein
Protocol: About 4-5 weeks old (balb/c nude, Beijing Vital River) mice were subcutaneously inoculated with 5×10^6 cells of 22rv1 (in 50% Matrigel, Corning) on the right scapula of animals. When the tumor grew to a size of about 150-350 mm^3, after anesthesia with isoflurane, ^177Lu-PSMA-617, ^177Lu-E3, ^177Lu-E4, ^177Lu-E8, ^177Lu-E16, ^177Lu-E18, ^177Lu-E24 radiolabeled compounds were injected into the tail vein of mice (about 7.4 MBq/mouse, specific activity: 22423.82 KBq/μg). Subsequently, SPECT imaging was performed with a small animal SPECT-CT imaging system (U-SPECT+/CT, MI Labs) at 1 h, 5 h, 24 h, 48 h and 72 h, respectively. ^177Lu-PSMA-617 is shown in FIG. 9, ^177Lu-E3 is shown in FIG. 10, ^177Lu-E4 is shown in FIG. 11, ^177Lu-E8 is shown in FIG. 12, ^177Lu-E16 is shown in FIG. 13, ^177Lu-[…] is shown in FIG. 14, and ^177Lu-E24 is shown in FIG. 15. […] The main way of drug elimination is through the kidney.

22rv1 xenograft tumor = assay: Pharmacodynamic study in 22rv1 mouse xenograft tumor model (effect example 11); type: in vivo, mice; settings: over the two dose groups
[5] = system: LNCaP PSMA-positive tumors; assay: SPECT imaging in mice carrying LNCaP PSMA-positive tumors; type: in vivo; settings: 100 μCi tail vein
Protocol: 100 μCi of ^177Lu-labeled ^177Lu-E3 and ^177Lu-PSMA-617 were injected into mice carrying LNCaP PSMA-positive tumors (Jiangsu Huajing Molecular Imaging and Drug Research Institute Co., Ltd.) through the tail vein respectively. Mice were anesthetized with 2% isoflurane/98% oxygen for SPECT image contrast study.

[6] = 5 min after tail vein injection
[7] = 0.5 h after tail vein injection

## O=C([O-])CN1CCN(CC(=O)[O-])CCN(CC(=O)N2CCc3cc(C(=O)NC(Cc4ccc5ccccc5c4)C(=O)NCCCCC(NC(=O)NC(CCC(=O)O)C(=O)O)C(=O)O)ccc3C2)CCN(CC(=O)[O-])CC1.[177Lu+3] (stereo not drawn) [^177Lu-E3]
[1]; [6]
  plasma radioactive counts: 26791 cpm and 31372 cpm and 27797 cpm
  plasma radioactive counts, MEAN: 28653 cpm
[1]; [7]
  plasma radioactive counts: 10681 cpm and 8675 cpm and 8026 cpm
  plasma radioactive counts, MEAN: 9127 cpm
[1]; 1 h after tail vein injection
  plasma radioactive counts: 3448 cpm and 3676 cpm and 2916 cpm
  plasma radioactive counts, MEAN: 3347 cpm
[1]; 2 h after tail vein injection
  plasma radioactive counts: 539 cpm and 559 cpm and 458 cpm
  plasma radioactive counts, MEAN: 519 cpm
[1]; 4 h after tail vein injection
  plasma radioactive counts: 178 cpm and 135 cpm and 181 cpm
  plasma radioactive counts, MEAN: 165 cpm
[1]; 8 h after tail vein injection
  plasma radioactive counts: 154 cpm and 191 cpm and 184 cpm
  plasma radioactive counts, MEAN: 176 cpm
[1]; 24 h after tail vein injection
  plasma radioactive counts: 191 cpm and 175 cpm and 179 cpm
  plasma radioactive counts, MEAN: 182 cpm
[2]; 0.1 nM
  uptake by LNCap cells: 48 cpm
[2]; 1 nM
  uptake by LNCap cells: 95 cpm
[2]; 10 nM
  uptake by LNCap cells: 346 cpm
[2]; 100 nM
  uptake by LNCap cells: 555 cpm
[2]; 1000 nM
  uptake by LNCap cells: 903 cpm
[2]; 10000 nM
  uptake by LNCap cells: 3150 cpm
[3]
  uptake in each organ: low
[4]
  specific absorption in PSMA-expressing tumors after 72 hours: high specific absorption
  uptake of radioactivity in PSMA-expressing tumors compared with ^177Lu-PSMA-617: higher uptake of radioactivity
22rv1 xenograft tumor
  tumor growth inhibition rate: 71-80%
[5]
  accumulation in PSMA-positive tumors compared with reference animals injected with ^177Lu-PSMA-617: significantly higher
  route of excretion: mainly excreted through the kidney
[5]; 1 h
  Heart, Averaged: 6.44 % ID/cc
  Kidney, Averaged: 165.36 % ID/cc
  Liver, Averaged: 3.08 % ID/cc
  Lung, Averaged: 5.52 % ID/cc
  Tumor, Averaged: 23.56 % ID/cc
[5]; 4 h
  Heart, Averaged: 2.41 % ID/cc
  Kidney, Averaged: 129.55 % ID/cc
  Liver, Averaged: 2.03 % ID/cc
  Lung, Averaged: 3.26 % ID/cc
  Tumor, Averaged: 28.79 % ID/cc
[5]; 8 h
  Heart, Averaged: 1.39 % ID/cc
  Kidney, Averaged: 87.74 % ID/cc
  Liver, Averaged: 2.54 % ID/cc
  Lung, Averaged: 1.82 % ID/cc
  Tumor, Averaged: 31.79 % ID/cc
[5]; 1 d
  Heart, Averaged: 3.23 % ID/cc
  Kidney, Averaged: 8.03 % ID/cc
  Liver, Averaged: 1.94 % ID/cc
  Lung, Averaged: 2.71 % ID/cc
  Tumor, Averaged: 34.01 % ID/cc
[5]; 3 d
  Heart, Averaged: 2.03 % ID/cc
  Kidney, Averaged: 3.74 % ID/cc
  Liver, Averaged: 1.80 % ID/cc
  Lung, Averaged: 2.68 % ID/cc
  Tumor, Averaged: 32.84 % ID/cc

Source: patent publication US20240366813A1, “PEPTIDE-UREA DERIVATIVE, PHARMACEUTICAL COMPOSITION CONTAINING SAME AND APPLICATION THEREOF” (Bivision Pharmaceuticals, Inc., priority 0001, published 2024)
